# In patent US20060005464A1, “Alkyl ethanolamine and biocide combination for hydrocarbon based fuels” (priority 2004, published 2006):
# Key:
# [1] = tested on: Mycobacterium marinum (ATCC # 19420); experiment: End-point optical density and MIC, Mycobacterium marinum (660 nm, 72 h); format: cell-based; conditions: pH 8.5; for end-point optical density: 660 nm, after 72 hours
# Protocol: The impact of N-alkylalkanolamines on the control of the bacterial species Mycobacterium smegmatis (ATCC # 19420), a bacteria common in water-oil systems, was evaluated by measuring optical absorbance of samples treated with various alkyl ethanolaminesis DCHA=Dicyclohexylamine, OAE=Octylaminoethanol, ODEA=Octyldiethanolamine. Bacterial concentration was monitored indirectly via optical absorbance at 660 nm. The values reported are end-point optical densities in milliOD units after 48 hours. The media consisted of a standardized solution of clear nutrient broth (Middlebrook 7H10 with OADC supplement), amine, buffer (Tris) and water. The pH was adjusted initially to 8.5 with Tris buffer. The first column in the Table gives the amine concentration in ppm. The final two columns give data for cells that also contained 2 grams per liter of boric acid. In all cases, the values are averages of at least three replicates. The final row of the Table gives an estimate of the concentration range in which the amine in question starts to inhibit the growth of this bacterial species.
# The impact of the N-alkylalkanolamines of Example 6 on the control of the bacterial species Mycobacterium marinum (ATCC # 19420), bacteria common in water-oil systems, was evaluated as described above in Example 6. Bacterial concentration in the experimental media was monitored indirectly via optical absorbance at 660 nm. The values reported are end-point optical densities in milliOD units after 72 hours. The media consisted of a standardized solution of clear nutrient broth (Middlebrook 7H10 with OADC supplement), amine, buffer (Tris) and water. The pH was adjusted initially to 8.5 with Tris buffer. The first column in the Table gives the amine concentration in ppm. In all cases, the values are averages of at least three replicates. The final row of the Table gives an estimate of the concentration range in which the amine in question starts to inhibit the growth of this bacterial species.
# [2] = tested on: Pseudomonas aeruginosa (ATCC 10145); experiment: Maximum growth slope of Pseudomonas aeruginosa with Proxel DB20 (BIT) plus alkanolamine; format: cell-based; conditions: pH 8.5, TSB, 24 hour
# Protocol: A culture of Pseudomonas aeruginosa (ATCC 10145) at pH=8.5 in TSB (trypticase soy broth) media was prepared. The biocide Proxel DB20 (20% suspension of benzoisothiazolone (BIT) in water), as sold by Avecia, was added at varying concentrations in combination with 1000 ppm or 2000 ppm of the alkanolamines N-butylaminoethanol (BAE), 2-amino-2-methyl-1-propanol (AMP), dibutylaminoethanol (DBAE) or n-octylaminoethanol (OAE). Optical density measurements were taken every 15 minutes over a 24 hour time period (total of 96 data points). The maximum growth slope was calculated by taking the 10 contiguous data points that result in the highest growth slope (units of OD per time) over a 24 hour period. Those 10 data points were subjected to a least squares linear fit to calculate the maximum growth slope.
# [3] = tested on: Aureobasidium pullulans (ATCC 12536); experiment: End-point optical density of Aureobasidium pullulans with MIT/CMIT plus alkanolamine; format: cell-based; conditions: SAB media pH 8.5
# Protocol: The impact of N-alkylalkanolamines on the control of the bacterial species Aureobasidium pullulans (ATCC 12536), a bacteria common in water-oil systems, was evaluated by measuring optical absorbance of samples treated with various concentrations of N-alkyl alkanolamines. […] SAB media at pH 8.5 (Tris buffer) was employed. Table 8 summarizes measurement of end-point optical density after 24 hours and 48 hours: […]
# [4] = tested on: Pseudomonas aeruginosa (ATCC 10145); experiment: Maximum growth slope of Pseudomonas aeruginosa with Bronopol plus alkanolamine; conditions: pH 8.5, TSB
# [5] = tested on: Mycobacterium smegmatis (ATCC # 19420); experiment: End-point optical density of Mycobacterium smegmatis with N-alkyl alkanolamines (590 nm, 72 h); format: cell-based; conditions: 590 nm, after 72 hours, pH 8.5, tetrazolium dye
# [6] = tested on: mixed enteric bacteria (klebsiella pneumoniae, Proteus vulgarus, Citrobacter sp., Escherichia coli); experiment: Maximum growth slope of mixed enteric bacteria culture with GROTAN plus alkanolamine; format: cell-based; conditions: pH 9.0, TSB with emulsified oil, 24 hour
# Protocol: A culture of mixed enteric bacteria (klebsiella pneumoniae, Proteus vulgarus, Citrobacter sp., Escherichia coli) at pH=9.0 in TSB (trypticase soy broth) media mixed with emulsified oil was prepared. A biocide, GROTAN® {78.5% 1,3,5-(2-hydroxyethyl)-s-triazine solution in water} as sold by Troy Chemicals (Florham Park, N.J.) was added at varying concentrations to the culture in combination with 2500 ppm of one of the four alkanolamines, N-butylaminoethanol (BAE), diethanolamine (DEA), diglycolamine (DGA) or 2-amino-2-methyl-1-propanol (AMP). Optical density measurements were taken every 15 minutes over a 24 hour time period (total of 96 data points). The maximum growth slope was calculated by taking the 10 contiguous data points that result in the highest growth slope (units of OD per time) over the 24 hour period. Those 10 data points were subjected to a least squares linear fit to calculate the maximum growth slope.
# [7] = tested on: Pseudomonas Aeruginosa (ATCC27853); experiment: Microtiter plate growth of Pseudomonas Aeruginosa with amines and GROTAN; format: cell-based; conditions: for growth of Pseudomonas Aeruginosa (Table 1 entry): pH 8.5, 24 hours; for enhancement in the biocidal effect of GROTAN: conclusion from Table 1
# [8] = amine 1000 ppm plus BIT 150 ppm
# [9] = amine 1000 ppm plus BIT 250 ppm
# [10] = amine 1000 ppm plus BIT 500 ppm
# [11] = amine 2000 ppm plus BIT 150 ppm
# [12] = amine 2000 ppm plus BIT 250 ppm
# [13] = amine 2000 ppm plus BIT 500 ppm
# [14] = amine 1000 ppm plus 50 ppm MIT/CMIT, 24 hours
# [15] = amine 1000 ppm plus 50 ppm MIT/CMIT, 48 hours
# [16] = amine 2000 ppm plus 50 ppm MIT/CMIT, 24 hours
# [17] = amine 2000 ppm plus 50 ppm MIT/CMIT, 48 hours
# [18] = amine 2000 ppm plus Bronopol 5 ppm
# [19] = amine 2000 ppm plus Bronopol 15 ppm
# [20] = amine 2000 ppm plus Bronopol 25 ppm
# [21] = amine 2000 ppm plus Bronopol 35 ppm
# [22] = 2500 ppm amine plus GROTAN 650 ppm
# [23] = 2500 ppm amine plus GROTAN 1650 ppm
# [24] = amine 2000 ppm plus GROTAN 100 ppm
# [25] = amine 2000 ppm plus GROTAN 250 ppm
# [26] = amine 2000 ppm plus GROTAN 500 ppm
# [27] = amine 2000 ppm plus GROTAN 1000 ppm
# [28] = amine 2000 ppm plus GROTAN 2000 ppm
# [29] = amine 4000 ppm plus GROTAN 100 ppm
# [30] = amine 4000 ppm plus GROTAN 250 ppm
# [31] = amine 4000 ppm plus GROTAN 500 ppm
# [32] = amine 4000 ppm plus GROTAN 1000 ppm
# [33] = amine 4000 ppm plus GROTAN 2000 ppm
smiles,measurement,setting,value
"CCCCNCCO [BAE, butylaminoethanol]",MIC (estimate of the concentration range in which the amine starts to inhibit growth),[1]; 72 hours,>4000 ppm
same,end-point optical density,[1]; amine 800 ppm,0.7 milliOD
same,end-point optical density,[1]; amine 1200 ppm,0.7 milliOD
same,end-point optical density,[1]; amine 2000 ppm,0.6 milliOD
same,end-point optical density,[1]; amine 4000 ppm,0.6 milliOD
same,maximum growth slope,[2]; [8],0.317 OD per time
same,maximum growth slope,[2]; [9],0.353 OD per time
same,maximum growth slope,[2]; [10],0.281 OD per time
same,maximum growth slope,"[2]; amine 1000 ppm, BIT 0 ppm",0.333 OD per time
same,maximum growth slope,[2]; [11],0.134 OD per time
same,maximum growth slope,[2]; [12],0.000 OD per time
same,maximum growth slope,[2]; [13],0.000 OD per time
same,maximum growth slope,"[2]; amine 2000 ppm, BIT 0 ppm",0.000 OD per time
same,end-point optical density,[3]; [14],0.3
same,end-point optical density,[3]; [15],0.3
same,end-point optical density,[3]; [16],0.2
same,end-point optical density,[3]; [17],0.2
same,maximum growth slope,[4]; [18],0.083
same,maximum growth slope,[4]; [19],0
same,maximum growth slope,[4]; [20],0
same,maximum growth slope,[4]; [21],0
same,end-point optical density,[5]; amine 470 ppm,2200 milliOD
same,end-point optical density,[5]; amine 940 ppm,2100 milliOD
same,end-point optical density,[5]; amine 1880 ppm,2000 milliOD
same,end-point optical density,[5]; amine 3750 ppm,1900 milliOD
same,end-point optical density,[5]; amine 7500 ppm,1700 milliOD
same,maximum growth slope,[6]; [22],0.082 OD per time
same,maximum growth slope,[6]; [23],0.0515 OD per time
same,maximum growth slope,"[6]; 2500 ppm amine, GROTAN 0 ppm",0.2 OD per time
same,growth of Pseudomonas Aeruginosa (Table 1 entry),[7]; [24],0.49
same,growth of Pseudomonas Aeruginosa (Table 1 entry),[7]; [25],0.45
same,growth of Pseudomonas Aeruginosa (Table 1 entry),[7]; [26],0.35
same,growth of Pseudomonas Aeruginosa (Table 1 entry),[7]; [27],0.30
same,growth of Pseudomonas Aeruginosa (Table 1 entry),[7]; [28],0.36
same,growth of Pseudomonas Aeruginosa (Table 1 entry),"[7]; amine 2000 ppm, GROTAN 0 ppm",0.37
same,growth of Pseudomonas Aeruginosa (Table 1 entry),[7]; [29],0.35
same,growth of Pseudomonas Aeruginosa (Table 1 entry),[7]; [30],0.32
same,growth of Pseudomonas Aeruginosa (Table 1 entry),[7]; [31],0.25
same,growth of Pseudomonas Aeruginosa (Table 1 entry),[7]; [32],0.29
same,growth of Pseudomonas Aeruginosa (Table 1 entry),[7]; [33],0.36
same,growth of Pseudomonas Aeruginosa (Table 1 entry),"[7]; amine 4000 ppm, GROTAN 0 ppm",0.49
same,enhancement in the biocidal effect of GROTAN,[7],provide an enhancement in the biocidal effect of GROTAN®
"CC(C)(N)CO [AMP, 2-methyl-2-amino-1-propanol, reference compound]",maximum growth slope,[2]; [8],0.667 OD per time
same,maximum growth slope,[2]; [9],0.508 OD per time
same,maximum growth slope,[2]; [10],0.407 OD per time
same,maximum growth slope,"[2]; amine 1000 ppm, BIT 0 ppm",0.478 OD per time
same,maximum growth slope,[2]; [11],0.361 OD per time
same,maximum growth slope,[2]; [12],0.320 OD per time
same,maximum growth slope,[2]; [13],0.228 OD per time
same,maximum growth slope,"[2]; amine 2000 ppm, BIT 0 ppm",0.29 OD per time
same,end-point optical density,[3]; [14],0.3
same,end-point optical density,[3]; [15],0.4
same,end-point optical density,[3]; [16],0.3
same,end-point optical density,[3]; [17],0.4
same,maximum growth slope,[4]; [18],0.345
same,maximum growth slope,[4]; [19],0.327
same,maximum growth slope,[4]; [20],0
same,maximum growth slope,[4]; [21],0
same,end-point optical density,[5]; amine 470 ppm,2100 milliOD
same,end-point optical density,[5]; amine 940 ppm,2200 milliOD
same,end-point optical density,[5]; amine 1880 ppm,2100 milliOD
same,end-point optical density,[5]; amine 3750 ppm,2000 milliOD
same,end-point optical density,[5]; amine 7500 ppm,1700 milliOD
same,maximum growth slope,[6]; [22],0.32 OD per time
same,maximum growth slope,[6]; [23],0.069 OD per time
same,maximum growth slope,"[6]; 2500 ppm amine, GROTAN 0 ppm",1.065 OD per time
same,growth of Pseudomonas Aeruginosa (Table 1 entry),[7]; [24],0.72
same,growth of Pseudomonas Aeruginosa (Table 1 entry),[7]; [25],0.72
same,growth of Pseudomonas Aeruginosa (Table 1 entry),[7]; [26],0.72
same,growth of Pseudomonas Aeruginosa (Table 1 entry),[7]; [27],0.31
same,growth of Pseudomonas Aeruginosa (Table 1 entry),[7]; [28],0.35
same,growth of Pseudomonas Aeruginosa (Table 1 entry),"[7]; amine 2000 ppm, GROTAN 0 ppm",0.72
same,growth of Pseudomonas Aeruginosa (Table 1 entry),[7]; [29],0.72
same,growth of Pseudomonas Aeruginosa (Table 1 entry),[7]; [30],0.69
same,growth of Pseudomonas Aeruginosa (Table 1 entry),[7]; [31],0.39
same,growth of Pseudomonas Aeruginosa (Table 1 entry),[7]; [32],0.30
same,growth of Pseudomonas Aeruginosa (Table 1 entry),[7]; [33],0.37
same,growth of Pseudomonas Aeruginosa (Table 1 entry),"[7]; amine 4000 ppm, GROTAN 0 ppm",1.12
same,enhancement in the biocidal effect of GROTAN,[7],not seen
